From patent US20090104335A1, “Healthy Food Product” (priority 2006, published 2009)

Assay: Effect of peptides on incorporation of cholesterol (NBD-cholesterol) into mixed micelles
Conditions: Table 3, effect of charge; peptides 1 mg/ml; BA-mix in PBS pH 6.5; micelles without peptide = 100%
Description: To form mixed micelles in vitro, 0.1 mM lecithin, 0.05 mM monoolein, 0.1 mM oleic acid and 80 μM cholesterol are mixed in a test tube and dried under a stream of N2. After drying, a 2 mM bile acid mix (BA-mix) in PBS pH 6.5 is added to this lipid mixture. Fluorescent labelled cholesterol (NBD-cholesterol) is used to monitor the incorporation of cholesterol into the mixed micelles.
For testing, peptides (1 mg/ml) are added to the BA-mix and then mixed with lipid-mixtures as described. The whole mixture is vortexed for 15 seconds, followed by an ultrasonic treatment in a waterbath for 30 minutes. From this mixture a sample is taken to measure total NBD-cholesterol concentration. The remaining micelle solution is centrifuged in a table-top ultracentrifuge at 50.000 g for 30 minutes at room temperature.
After centrifugation, samples from the supernatant are taken for the determination of solubilized NBD-cholesterol, which indicates the amount of cholesterol incorporated into mixed micelles. The pellet containing crystallised cholesterol is discarded. NBD-cholesterol is measured at 375/465 nm using a fluorescence plate reader.
Mixed micelle mixtures containing no peptides are used as control (100%). For each example the percentage of incorporated Cholesterol is calculated by dividing the amount of incorporated cholesterol for the tested composition by the amount of incorporated cholesterol in the control sample.

Substance | Incorporated CH (% control = 80 μM cholesterol) [% control]
RRRRRR | 14.8
KKKKKK | 19.9
RARWRY | 19.3
DDDDDD [reference compound] | 136.8
VEWEME [reference compound] | 68.4
EAEWEY [reference compound] | 81.3
VRWRMR | 26.2

Same assay, conditions: Table 4, effect of length; peptides 1 mg/ml; BA-mix in PBS pH 6.5; micelles without peptide = 100%

Substance | Incorporated CH (% control = 80 μM cholesterol) [% control]
RRRRRR | 10.3
RRRR | 32.8
RRRRRRRR [octa-peptide RRRRRRRR, net charge +8] | 8.8
